In article PMC6225228, “Design, Synthesis and Evaluation of N-pyrazinylbenzamides as Potential Antimycobacterial Agents” (Molecules : A Journal of Synthetic Chemistry and Natural …, 2018):
Like-named read-outs stand apart in the source and are kept apart here.

How the values were obtained:
[1] = tested on: Mycobacterium tuberculosis H37Rv CNCTC My 331/88 (ATCC 27294); experiment: Antimycobacterial microdilution MABA, M. tuberculosis; type: cell-based; conditions: for Mtb H37Rv ATCC 27294 MIC: Middlebrook 7H9 with OADC growth supplement, pH = 6.6, MABA; for MIC: Mycobacterium tuberculosis, read-out: Mtb H37Rv ATCC 27294 MIC, Middlebrook 7H9 with OADC growth supplement, pH = 6.6, MABA
[2] = tested on: Mycobacterium smegmatis CCM 4622 (ATCC 607); experiment: Antimycobacterial microdilution, M. smegmatis; type: cell-based; conditions: Mycolicibacterium smegmatis, read-out: M. smeg. ATCC 607 MIC
[3] = tested on: Staphylococcus aureus CCM 4516/08; experiment: Antibacterial microdilution broth, SA; type: cell-based; conditions: Staphylococcus aureus
[4] = tested on: M. avium ssp. avium CNCTC My 80/72 (ATCC 15769); experiment: Antimycobacterial microdilution MABA, M. avium; type: cell-based, Mycobacterium avium; conditions: Mycobacterium avium, ATCC15769, pH 6.6, read-out: M. avium ATCC 15769 MIC
Candida krusei E28 = experiment: Antifungal microdilution broth, CK; type: cell-based; conditions: Pichia kudriavzevii, read-out: MIC CK
[5] = tested on: Aspergillus fumigatus 231; experiment: Antifungal microdilution broth, AF; type: cell-based; conditions: read-out: MIC AF
[6] = tested on: Escherichia coli CCM 4517; experiment: Antibacterial microdilution broth, EC; type: cell-based; conditions: Escherichia coli, read-out: MIC EC
Candida glabrata 20/I = experiment: Antifungal microdilution broth, CG; type: cell-based; conditions: Nakaseomyces glabratus, 20/I, read-out: MIC CG
Candida tropicalis 156 = experiment: Antifungal microdilution broth, CT; type: cell-based; conditions: read-out: MIC CT
[7] = tested on: Trichophyton interdigitale 445; experiment: Antifungal microdilution broth, TI; type: cell-based; conditions: read-out: MIC TI
[8] = tested on: Enterococcus sp. J 14365/08; experiment: Antibacterial microdilution broth, EF; type: cell-based; conditions: Enterococcus, read-out: MIC EF
[9] = tested on: Candida albicans ATCC 44859; experiment: Antifungal microdilution broth, CA; type: cell-based; conditions: Candida albicans, read-out: MIC CA
[10] = tested on: Staphylococcus aureus H 5996/08 methicillin resistant; experiment: microbe, parasite or virus in culture; type: cell-based; conditions: Staphylococcus aureus, MRSA, read-out: MIC MRSA
Trichosporon asahii 1188 = experiment: Antifungal microdilution broth, TA; type: cell-based; conditions: read-out: MIC TA
[11] = tested on: M. kansasii CNCTC My 235/80 (ATCC 12478); experiment: Antimycobacterial microdilution MABA, M. kansasii; type: cell-based, Mycobacterium kansasii; conditions: Mycobacterium kansasii, ATCC12478, pH 6.6, read-out: M. kans. ATCC 12478 MIC, Middlebrook 7H9 with OADC, pH 6.6, MABA
[12] = tested on: Staphylococcus epidermidis H 6966/08; experiment: Antibacterial microdilution broth, SE; type: cell-based; conditions: Staphylococcus epidermidis, read-out: MIC SE
[13] = tested on: Lichtheimia corymbifera 272; experiment: Antifungal microdilution broth, LC; type: cell-based; conditions: read-out: MIC LC
[14] = tested on: Pseudomonas aeruginosa CCM 1961; experiment: Antibacterial microdilution broth, PA; type: cell-based; conditions: Pseudomonas aeruginosa, read-out: MIC PA
[15] = CCM4516, 24 h, read-out: MIC SA, 24 h
[16] = CCM4516, 48 h, read-out: MIC SA, 48 h
[17] = CCM4516, read-out: MIC against S. aureus, time not stated
[18] = Aspergillus fumigatus, 231, 24 h
[19] = Aspergillus fumigatus, 231, 48 h
[20] = Trichophyton interdigitale, 445, 72 h
[21] = Trichophyton interdigitale, 445, 120 h
[22] = Trichosporon asahii, 1188, 24 h
[23] = Trichosporon asahii, 1188, 48 h
[24] = Lichtheimia corymbifera, 272, 24 h
[25] = Lichtheimia corymbifera, 272, 48 h

SMILES: O=C(Nc1cnc(Cl)cn1)c1cccc(Cl)c1 [Compound 2k]
- Mtb H37Rv ATCC 27294 MIC [1]: >100 µg/mL
- MIC [1]: > 100 µg/mL
- MIC [2]: ≥ 500 µg/mL
- MIC [3, 15]: > 125 µM
- MIC [3, 16]: > 125 µM
- MIC [3, 17]: > 125 µM
- MIC [4]: > 100 µg/mL
- MIC (Candida krusei E28; E28, 24 h): > 125 µM
- MIC (Candida krusei E28; E28, 48 h): > 125 µM
- MIC [5, 18]: > 125 µM
- MIC [5, 19]: > 125 µM
- MIC ([6]; CCM4517, 24 h): > 125 µM
- MIC ([6]; CCM4517, 48 h): > 125 µM
- MIC (Candida glabrata 20/I; 24 h): > 125 µM
- MIC (Candida glabrata 20/I; 48 h): > 125 µM
- MIC (Candida tropicalis 156; Candida tropicalis, 156, 24 h): > 125 µM
- MIC (Candida tropicalis 156; Candida tropicalis, 156, 48 h): > 125 µM
- MIC [7, 20]: > 125 µM
- MIC [7, 21]: > 125 µM
- MIC ([8]; SP.J14365/08, 24 h): > 125 µM
- MIC ([8]; SP.J14365/08, 48 h): > 125 µM
- MIC ([9]; ATCC44859, 24 h): > 125 µM
- MIC ([9]; ATCC44859, 48 h): > 125 µM
- MIC ([10]; 24 h): > 125 µM
- MIC ([10]; 48 h): > 125 µM
- MIC (Trichosporon asahii 1188; [22]): > 125 µM
- MIC (Trichosporon asahii 1188; [23]): > 125 µM
- MIC [11]: > 100 µg/mL
- MIC ([12]; H6966/08, 24 h): > 125 µM
- MIC ([12]; H6966/08, 48 h): > 125 µM
- MIC [13, 24]: > 125 µM
- MIC [13, 25]: > 125 µM
- melting point: 150.7 to 151.9 °C
- MIC ([14]; CCM1961, 72 h): > 125 µM
- MIC ([14]; CCM1961, 120 h): > 125 µM

SMILES: O=C(Nc1cnc(Cl)cn1)c1ccc(Cl)cc1 [Compound 2l]
- MIC [1]: > 100 µg/mL
- MIC [2]: ≥ 500 µg/mL
- MIC [3, 15]: > 125 µM
- MIC [3, 16]: > 125 µM
- MIC [3, 17]: > 125 µM
- MIC [4]: > 100 µg/mL
- MIC (Candida krusei E28; E28, 24 h): > 125 µM
- MIC (Candida krusei E28; E28, 48 h): > 125 µM
- MIC [5, 18]: > 125 µM
- MIC [5, 19]: > 125 µM
- MIC ([6]; CCM4517, 24 h): > 125 µM
- MIC ([6]; CCM4517, 48 h): > 125 µM
- MIC (Candida glabrata 20/I; 24 h): > 125 µM
- MIC (Candida glabrata 20/I; 48 h): > 125 µM
- MIC (Candida tropicalis 156; Candida tropicalis, 156, 24 h): > 125 µM
- MIC (Candida tropicalis 156; Candida tropicalis, 156, 48 h): > 125 µM
- MIC [7, 20]: > 125 µM
- MIC [7, 21]: > 125 µM
- MIC ([8]; SP.J14365/08, 24 h): > 125 µM
- MIC ([8]; SP.J14365/08, 48 h): > 125 µM
- MIC ([9]; ATCC44859, 24 h): > 125 µM
- MIC ([9]; ATCC44859, 48 h): > 125 µM
- MIC ([10]; 24 h): > 125 µM
- MIC ([10]; 48 h): > 125 µM
- MIC (Trichosporon asahii 1188; [22]): > 125 µM
- MIC (Trichosporon asahii 1188; [23]): > 125 µM
- MIC [11]: > 100 µg/mL
- MIC ([12]; H6966/08, 24 h): > 125 µM
- MIC ([12]; H6966/08, 48 h): > 125 µM
- MIC [13, 24]: > 125 µM
- MIC [13, 25]: > 125 µM
- melting point: 225 to 226.3 °C
- MIC ([14]; CCM1961, 72 h): > 125 µM
- MIC ([14]; CCM1961, 120 h): > 125 µM

SMILES: O=C(Nc1cnc(Cl)cn1)c1ccc(Br)cc1 [Compound 2m]
- Mtb H37Rv ATCC 27294 MIC [1]: >100 µg/mL
- MIC [1]: > 100 µg/mL
- MIC [2]: ≥ 500 µg/mL
- MIC [3, 15]: > 125 µM
- MIC [3, 16]: > 125 µM
- MIC [4]: > 100 µg/mL
- MIC (Candida krusei E28; E28, 24 h): > 125 µM
- MIC (Candida krusei E28; E28, 48 h): > 125 µM
- MIC [5, 18]: > 125 µM
- MIC [5, 19]: > 125 µM
- MIC ([6]; CCM4517, 24 h): > 125 µM
- MIC ([6]; CCM4517, 48 h): > 125 µM
- MIC (Candida glabrata 20/I; 24 h): > 125 µM
- MIC (Candida glabrata 20/I; 48 h): > 125 µM
- MIC (Candida tropicalis 156; Candida tropicalis, 156, 24 h): > 125 µM
- MIC (Candida tropicalis 156; Candida tropicalis, 156, 48 h): > 125 µM
- MIC [7, 20]: > 125 µM
- MIC [7, 21]: > 125 µM
- MIC ([8]; SP.J14365/08, 24 h): > 125 µM
- MIC ([8]; SP.J14365/08, 48 h): > 125 µM
- MIC ([9]; ATCC44859, 24 h): > 125 µM
- MIC ([9]; ATCC44859, 48 h): > 125 µM
- MIC ([10]; 24 h): > 125 µM
- MIC ([10]; 48 h): > 125 µM
- MIC (Trichosporon asahii 1188; [22]): > 125 µM
- MIC (Trichosporon asahii 1188; [23]): > 125 µM
- MIC [11]: > 100 µg/mL
- MIC ([12]; H6966/08, 24 h): > 125 µM
- MIC ([12]; H6966/08, 48 h): > 125 µM
- MIC [13, 24]: > 125 µM
- MIC [13, 25]: > 125 µM
- melting point: 229.2 to 230.5 °C
- MIC ([14]; CCM1961, 72 h): > 125 µM
- MIC ([14]; CCM1961, 120 h): > 125 µM

SMILES: COc1ccccc1C(=O)Nc1cncc(Cl)n1 [Compound 3e]
- Mtb H37Rv ATCC 27294 MIC [1]: >100 µg/mL
- MIC [1]: > 100 µg/mL
- MIC [2]: ≥ 500 µg/mL
- MIC [3, 15]: > 500 µM
- MIC [3, 16]: > 500 µM
- MIC [4]: > 100 µg/mL
- MIC (Candida krusei E28; E28, 24 h): > 500 µM
- MIC (Candida krusei E28; E28, 48 h): > 500 µM
- MIC [5, 18]: > 500 µM
- MIC [5, 19]: > 500 µM
- MIC ([6]; CCM4517, 24 h): > 500 µM
- MIC ([6]; CCM4517, 48 h): > 500 µM
- MIC (Candida glabrata 20/I; 24 h): > 500 µM
- MIC (Candida glabrata 20/I; 48 h): > 500 µM
- MIC (Candida tropicalis 156; Candida tropicalis, 156, 24 h): > 500 µM
- MIC (Candida tropicalis 156; Candida tropicalis, 156, 48 h): > 500 µM
- MIC [7, 20]: > 500 µM
- MIC [7, 21]: > 500 µM
- MIC ([8]; SP.J14365/08, 24 h): > 500 µM
- MIC ([8]; SP.J14365/08, 48 h): > 500 µM
- MIC ([9]; ATCC44859, 24 h): > 500 µM
- MIC ([9]; ATCC44859, 48 h): > 500 µM
- MIC ([10]; 24 h): > 500 µM
- MIC ([10]; 48 h): > 500 µM
- MIC (Trichosporon asahii 1188; [22]): > 500 µM
- MIC (Trichosporon asahii 1188; [23]): > 500 µM
- MIC [11]: > 100 µg/mL
- MIC ([12]; H6966/08, 24 h): > 500 µM
- MIC ([12]; H6966/08, 48 h): > 500 µM
- MIC [13, 24]: > 500 µM
- MIC [13, 25]: > 500 µM
- melting point: 149.1 to 150.7 °C
- MIC ([14]; CCM1961, 72 h): > 500 µM
- MIC ([14]; CCM1961, 120 h): > 500 µM
